Data as given in patent publication US20240217977A1, “DIAZEPANONE-FUSED PYRIMIDINE COMPOUNDS, COMPOSITIONS AND MEDICINAL APPLICATIONS THEREOF” (Blueprint Medicines Corporation, priority 2021, published 2024).

Key:
Format in all cases: cell-based
[1] = target: EGFR (A767_dupASV) expressing Ba/F3 stable cell line (Homo sapiens, UniProt P00533, DUP767-769, cells depend on it); experiment: Cellular proliferation (Alamar Blue) assay, EGFR (A767_dupASV) Ba/F3; conditions: 72 hr incubation, read-out: A767 IC50
Sequence of EGFR (A767_dupASV) expressing Ba/F3 stable cell line (P00533 with tags, fused parts or gaps DUP767-769): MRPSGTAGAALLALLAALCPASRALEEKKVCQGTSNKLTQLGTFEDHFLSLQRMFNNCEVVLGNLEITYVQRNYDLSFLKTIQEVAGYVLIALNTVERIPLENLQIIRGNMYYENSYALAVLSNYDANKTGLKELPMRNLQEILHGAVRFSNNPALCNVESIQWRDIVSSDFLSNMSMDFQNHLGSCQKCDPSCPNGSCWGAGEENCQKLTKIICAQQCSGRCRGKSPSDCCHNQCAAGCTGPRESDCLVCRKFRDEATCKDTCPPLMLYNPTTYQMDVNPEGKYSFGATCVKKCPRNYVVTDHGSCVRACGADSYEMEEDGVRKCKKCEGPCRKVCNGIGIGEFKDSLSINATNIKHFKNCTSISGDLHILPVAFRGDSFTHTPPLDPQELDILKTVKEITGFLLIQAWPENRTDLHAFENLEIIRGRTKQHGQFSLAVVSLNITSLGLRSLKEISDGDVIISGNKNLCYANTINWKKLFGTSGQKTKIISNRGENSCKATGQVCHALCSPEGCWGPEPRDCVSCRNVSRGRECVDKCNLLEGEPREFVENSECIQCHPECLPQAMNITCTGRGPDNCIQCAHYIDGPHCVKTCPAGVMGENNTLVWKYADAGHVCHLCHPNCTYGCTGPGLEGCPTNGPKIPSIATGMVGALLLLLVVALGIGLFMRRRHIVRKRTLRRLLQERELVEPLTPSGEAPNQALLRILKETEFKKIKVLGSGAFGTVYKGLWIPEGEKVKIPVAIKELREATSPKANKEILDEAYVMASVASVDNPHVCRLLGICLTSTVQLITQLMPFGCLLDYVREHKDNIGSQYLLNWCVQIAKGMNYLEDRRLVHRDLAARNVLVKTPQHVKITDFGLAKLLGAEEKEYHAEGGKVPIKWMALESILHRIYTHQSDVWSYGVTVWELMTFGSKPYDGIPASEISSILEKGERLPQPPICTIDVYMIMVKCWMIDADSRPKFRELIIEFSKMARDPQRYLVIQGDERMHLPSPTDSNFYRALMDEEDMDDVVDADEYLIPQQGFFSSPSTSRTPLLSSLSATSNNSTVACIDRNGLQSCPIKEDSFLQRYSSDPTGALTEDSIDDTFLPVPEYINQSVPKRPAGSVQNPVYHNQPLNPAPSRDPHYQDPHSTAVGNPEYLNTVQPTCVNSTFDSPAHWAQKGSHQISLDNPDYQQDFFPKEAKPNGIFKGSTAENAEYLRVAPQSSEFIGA
Method: (§1) Example 2: Cellular Proliferation (Alamar Blue) Assays
(§2) • 1. EGFR(D770_N771insSVD) expressing Ba/F3 stable cell line • 2. EGFR (A767_dupASV) expressing Ba/F3 stable cell line • 3. A431 cells • 4. EGFR (H773insNPH) expressing Ba/F3 stable cell line • 5. HER2 (A775_G775insYVMA) expressing Ba/F3 stable cell line
(§3) • 1. Seed cells at 5000 for A431 and 15,000 cells for Ba/F3 in 100 μL/well in complete media (for A431: DMEM with 10% FBS and for Ba/F3 cells: RPMI with 10% FBS) in • 96-well tissue culture plate. Leave outer wells without cells for background measurements. Incubate at 37 degree Celsius in 5% C02 humidified incubator for 16-18 hours. • 2. Add 0.025 ml of 5× concentration compound dilution or DMSO control. Final compound concentration range is 10-0.0005 μM prepared in 3-fold serial dilutions. Incubate for 72 hr at 37 degree Celsius in 5% CO2 humidified incubator. • 3. Add 0.0125 ml Alamar Blue™ reagent to each well with multi-channel pipette and tap gently on each side of the plate to mix. Incubate for 3 hours at 37 degree Celsius in 5% CO2 humidified incubator. • 4. Read plates on fluorescence reader (Tecan Spark Control, Device: Spark, Serial #: 1801006040) at 540 nm excitation, 590 nm emission wavelength. • 5. Data analysis was performed using XLfit 5.5.0.5.

[2] = target: EGFR (H773insNPH) expressing Ba/F3 stable cell line (Homo sapiens, UniProt P00533, DUP771-773, cells depend on it); experiment: Cellular proliferation (Alamar Blue) assay, EGFR (H773insNPH) Ba/F3; conditions: 72 hr incubation, read-out: NPH IC50
Sequence of EGFR (H773insNPH) expressing Ba/F3 stable cell line (P00533 with tags, fused parts or gaps DUP771-773): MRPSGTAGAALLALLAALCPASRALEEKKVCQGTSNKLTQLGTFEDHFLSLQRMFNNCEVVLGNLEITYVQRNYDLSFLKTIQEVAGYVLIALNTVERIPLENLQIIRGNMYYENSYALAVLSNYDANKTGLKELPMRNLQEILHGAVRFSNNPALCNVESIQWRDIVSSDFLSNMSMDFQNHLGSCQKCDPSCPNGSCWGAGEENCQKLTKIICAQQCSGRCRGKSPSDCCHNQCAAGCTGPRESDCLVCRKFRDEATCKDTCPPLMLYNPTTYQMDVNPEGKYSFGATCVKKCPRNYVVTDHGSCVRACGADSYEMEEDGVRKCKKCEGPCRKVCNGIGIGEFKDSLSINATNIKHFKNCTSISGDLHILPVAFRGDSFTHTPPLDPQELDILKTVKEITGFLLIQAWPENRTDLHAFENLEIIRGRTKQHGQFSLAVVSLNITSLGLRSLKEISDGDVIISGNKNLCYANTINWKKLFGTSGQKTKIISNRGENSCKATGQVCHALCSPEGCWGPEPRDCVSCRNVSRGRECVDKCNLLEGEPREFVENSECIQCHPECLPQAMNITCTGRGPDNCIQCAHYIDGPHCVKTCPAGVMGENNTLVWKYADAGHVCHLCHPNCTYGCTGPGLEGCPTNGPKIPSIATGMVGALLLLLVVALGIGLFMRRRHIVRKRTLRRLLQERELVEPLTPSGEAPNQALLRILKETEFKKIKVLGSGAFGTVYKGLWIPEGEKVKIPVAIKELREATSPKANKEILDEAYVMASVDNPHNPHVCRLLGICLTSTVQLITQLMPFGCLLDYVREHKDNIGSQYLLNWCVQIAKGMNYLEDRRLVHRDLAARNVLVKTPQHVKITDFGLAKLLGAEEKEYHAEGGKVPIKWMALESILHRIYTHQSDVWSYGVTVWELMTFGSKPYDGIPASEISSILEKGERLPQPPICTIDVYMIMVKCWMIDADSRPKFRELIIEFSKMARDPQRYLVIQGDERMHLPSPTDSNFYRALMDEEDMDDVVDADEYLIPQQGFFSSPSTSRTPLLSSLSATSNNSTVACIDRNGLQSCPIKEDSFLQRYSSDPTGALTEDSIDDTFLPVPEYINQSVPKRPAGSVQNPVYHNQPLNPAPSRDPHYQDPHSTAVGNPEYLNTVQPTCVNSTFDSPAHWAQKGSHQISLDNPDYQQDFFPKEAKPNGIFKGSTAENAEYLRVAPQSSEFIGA
Method: as §1, §2, §3

A431 cells = experiment: Cellular proliferation (Alamar Blue) assay, A431 cells; conditions: Homo sapiens, A-431, 72 hr incubation
Method: as §1, §2, §3

[3] = target: EGFR(D770_N771insSVD) expressing Ba/F3 stable cell line (Homo sapiens, UniProt P00533, DUP768-770, cells depend on it); experiment: Cellular proliferation (Alamar Blue) assay, EGFR(D770_N771insSVD) Ba/F3; conditions: 72 hr incubation, read-out: D770 IC50
Sequence of EGFR(D770_N771insSVD) expressing Ba/F3 stable cell line (P00533 with tags, fused parts or gaps DUP768-770): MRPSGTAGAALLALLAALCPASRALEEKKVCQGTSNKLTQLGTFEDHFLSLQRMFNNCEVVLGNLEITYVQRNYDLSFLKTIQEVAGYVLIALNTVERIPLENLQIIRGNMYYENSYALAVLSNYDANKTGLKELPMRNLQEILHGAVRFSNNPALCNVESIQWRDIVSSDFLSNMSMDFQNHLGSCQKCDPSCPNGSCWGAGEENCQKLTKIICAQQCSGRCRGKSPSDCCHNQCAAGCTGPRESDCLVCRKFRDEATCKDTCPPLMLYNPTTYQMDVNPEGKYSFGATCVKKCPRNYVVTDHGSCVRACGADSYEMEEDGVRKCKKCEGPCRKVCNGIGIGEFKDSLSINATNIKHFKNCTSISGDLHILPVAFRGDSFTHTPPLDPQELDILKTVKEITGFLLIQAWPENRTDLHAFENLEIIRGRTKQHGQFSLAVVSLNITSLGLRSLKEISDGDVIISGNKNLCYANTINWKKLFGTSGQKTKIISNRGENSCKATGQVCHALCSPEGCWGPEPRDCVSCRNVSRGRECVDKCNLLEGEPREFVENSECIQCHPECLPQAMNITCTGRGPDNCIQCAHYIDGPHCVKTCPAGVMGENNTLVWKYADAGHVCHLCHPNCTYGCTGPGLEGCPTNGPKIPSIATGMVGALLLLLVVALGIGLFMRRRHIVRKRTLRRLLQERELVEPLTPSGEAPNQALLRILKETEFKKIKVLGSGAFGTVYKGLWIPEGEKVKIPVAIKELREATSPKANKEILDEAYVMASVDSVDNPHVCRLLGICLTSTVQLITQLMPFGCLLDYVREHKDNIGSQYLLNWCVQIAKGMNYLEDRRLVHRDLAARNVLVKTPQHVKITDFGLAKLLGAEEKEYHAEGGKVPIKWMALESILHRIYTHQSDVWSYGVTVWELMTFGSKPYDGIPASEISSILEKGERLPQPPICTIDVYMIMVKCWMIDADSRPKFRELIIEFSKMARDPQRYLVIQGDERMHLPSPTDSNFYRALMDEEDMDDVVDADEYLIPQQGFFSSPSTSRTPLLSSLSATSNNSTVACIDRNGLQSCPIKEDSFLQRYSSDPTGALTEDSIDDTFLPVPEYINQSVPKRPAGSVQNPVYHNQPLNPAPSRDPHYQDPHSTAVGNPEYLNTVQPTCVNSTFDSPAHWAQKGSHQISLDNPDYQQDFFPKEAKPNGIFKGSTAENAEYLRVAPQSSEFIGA
Method: as §1, §2, §3

[4] = target: HER2 (A775_G775insYVMA) expressing Ba/F3 stable cell line (Homo sapiens, UniProt P04626, DUP772-775, cells depend on it); experiment: Cellular proliferation (Alamar Blue) assay, HER2 (A775_G775insYVMA) Ba/F3; conditions: 72 hr incubation, read-out: YVMA IC50
Sequence of HER2 (A775_G775insYVMA) expressing Ba/F3 stable cell line (P04626 with tags, fused parts or gaps DUP772-775): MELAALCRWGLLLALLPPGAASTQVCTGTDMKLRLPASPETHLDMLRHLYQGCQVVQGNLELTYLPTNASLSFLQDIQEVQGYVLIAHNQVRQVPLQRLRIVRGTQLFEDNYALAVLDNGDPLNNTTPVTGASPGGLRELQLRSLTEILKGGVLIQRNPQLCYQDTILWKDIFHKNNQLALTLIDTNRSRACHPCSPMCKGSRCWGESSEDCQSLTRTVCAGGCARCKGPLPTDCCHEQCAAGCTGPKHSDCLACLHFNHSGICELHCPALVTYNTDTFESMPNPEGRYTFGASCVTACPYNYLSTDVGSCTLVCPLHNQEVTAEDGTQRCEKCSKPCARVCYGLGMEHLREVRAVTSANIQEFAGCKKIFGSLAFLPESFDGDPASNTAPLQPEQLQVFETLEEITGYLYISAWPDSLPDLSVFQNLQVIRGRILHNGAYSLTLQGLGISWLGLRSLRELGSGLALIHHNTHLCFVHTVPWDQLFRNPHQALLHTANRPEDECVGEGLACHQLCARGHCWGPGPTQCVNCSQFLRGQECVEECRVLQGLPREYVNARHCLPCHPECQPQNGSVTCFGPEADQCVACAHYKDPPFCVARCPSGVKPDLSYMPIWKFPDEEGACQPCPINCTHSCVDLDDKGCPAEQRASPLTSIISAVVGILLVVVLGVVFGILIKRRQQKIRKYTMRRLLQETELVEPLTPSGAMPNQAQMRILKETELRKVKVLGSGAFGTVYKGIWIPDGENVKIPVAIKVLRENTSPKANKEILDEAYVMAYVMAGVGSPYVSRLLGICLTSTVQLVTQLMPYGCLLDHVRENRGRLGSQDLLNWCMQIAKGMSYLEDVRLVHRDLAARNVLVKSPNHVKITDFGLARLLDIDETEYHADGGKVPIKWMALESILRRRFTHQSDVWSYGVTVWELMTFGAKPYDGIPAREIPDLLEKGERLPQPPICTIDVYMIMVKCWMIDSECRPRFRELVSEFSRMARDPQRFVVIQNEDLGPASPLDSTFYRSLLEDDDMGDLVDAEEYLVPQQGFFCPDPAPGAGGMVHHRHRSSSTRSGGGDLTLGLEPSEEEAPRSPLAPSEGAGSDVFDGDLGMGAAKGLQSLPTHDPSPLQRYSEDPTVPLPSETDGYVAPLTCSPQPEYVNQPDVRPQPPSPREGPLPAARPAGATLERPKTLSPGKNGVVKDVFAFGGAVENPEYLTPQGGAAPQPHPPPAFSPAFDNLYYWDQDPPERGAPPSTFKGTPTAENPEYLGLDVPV
Method: as §1, §2, §3

GI50 [1] [µM]	GI50 [2] [µM]	IC50 (A431 cells) [µM]	GI50 [3] [µM]	GI50 [4] [µM]	SMILES
0.117	0.138	> 10	0.122	1.06	C=CC(=O)Nc1cccc(N2C(=O)N(c3ccccc3)CCc3cnc(Nc4cn(C)nc4F)nc32)c1 [Compound 35, N-(3-(2-((3-fluoro-1-methyl-1H-pyrazol-4-yl)amino)-8-oxo-7-phenyl-5,6,7,8-tetrahydro-9H-pyrimido[4,5-d][1,3]diazepin-9-yl)phenyl)acrylamide]
0.067	0.09	0.134	0.035	0.033	C=CC(=O)Nc1cccc(N2C(=O)N(Cc3ccccc3)CCc3cnc(Nc4ccc(F)nc4)nc32)c1 [Compound 26, N-(3-(7-benzyl-2-((6-fluoropyridin-3-yl)amino)-8-oxo-5,6,7,8-tetrahydro-9H-pyrimido[4,5-d][1,3]diazepin-9-yl)phenyl)acrylamide]
0.033	0.041	0.025	0.031	0.009	C=CC(=O)Nc1cccc(N2C(=O)N(Cc3ccccc3)CCc3cnc(Nc4ccc(N5CCN(C)CC5)c(C)c4)nc32)c1 [Compound 22, N-(3-(7-benzyl-2-((3-methyl-4-(4-methylpiperazin-1-yl)phenyl)amino)-8-oxo-5,6,7,8-tetrahydro-9H-pyrimido[4,5-d][1,3]diazepin-9-yl)phenyl)acrylamide]
0.046	0.095	0.035	0.045	0.028	C=CC(=O)Nc1cccc(N2C(=O)N(Cc3ccccc3)CCc3cnc(Nc4ccc(F)c(C)c4)nc32)c1 [Compound 9, N-(3-(7-benzyl-2-((4-fluoro-3-methylphenyl)amino)-8-oxo-5,6,7,8-tetrahydro-9H-pyrimido[4,5-d][1,3]diazepin-9-yl)phenyl)acrylamide]
0.043	0.094	0.008	0.047	0.02	Cn1cc(Nc2ncc3c(n2)N(c2cccc(NC(=O)/C=C/CN4CCOCC4)c2)C(=O)N(Cc2ccccc2)CC3)c(Cl)n1 [Compound 10, (E)-N-(3-(7-benzyl-2-((3-chloro-1-methyl-1H-pyrazol-4-yl)amino)-8-oxo-5,6,7,8-tetrahydro-9H-pyrimido[4,5-d][1,3]diazepin-9-yl)phenyl)-4-morpholinobut-2-enamide]
0.038	0.1	0.007	0.089	0.138	C=CC(=O)Nc1cccc(N2C(=O)N(c3ccccc3)CCc3cnc(Nc4ccc(N5CCN(C)CC5)cc4)nc32)c1 [Compound 37, N-(3-(2-((4-(4-methylpiperazin-1-yl)phenyl)amino)-8-oxo-7-phenyl-5,6,7,8-tetrahydro-9H-pyrimido[4,5-d][1,3]diazepin-9-yl)phenyl)acrylamide]
0.009	0.032	0.008	0.012	0.01	Cn1cc(Nc2ncc3c(n2)N(c2cccc(NC(=O)/C=C/CF)c2)C(=O)N(Cc2ccccc2)CC3)c(Cl)n1 [Compound 6, (E)-N-(3-(7-benzyl-2-((3-chloro-1-methyl-1H-pyrazol-4-yl)amino)-8-oxo-5,6,7,8-tetrahydro-9H-pyrimido[4,5-d][1,3]diazepin-9-yl)phenyl)-4-fluorobut-2-enamide]
0.039	0.088	0.007	0.092	0.131	C=CC(=O)Nc1cccc(N2C(=O)N(c3ccccc3)CCc3cnc(Nc4ccc(N5CCN(C)CC5)cc4OC)nc32)c1 [Compound 39, N-(3-(2-((2-methoxy-4-(4-methylpiperazin-1-yl)phenyl)amino)-8-oxo-7-phenyl-5,6,7,8-tetrahydro-9H-pyrimido[4,5-d][1,3]diazepin-9-yl)phenyl)acrylamide]
0.097	0.102	0.04	0.103	0.044	C=CC(=O)Nc1cccc(N2C(=O)N(Cc3ccccc3)CCc3cnc(Nc4ccc(F)cc4OC)nc32)c1 [Compound 21, N-(3-(7-benzyl-2-((4-fluoro-2-methoxyphenyl)amino)-8-oxo-5,6,7,8-tetrahydro-9H-pyrimido[4,5-d][1,3]diazepin-9-yl)phenyl)acrylamide]
